Experimental data published in the supplement of paper PMC10307832.

Columns and labels:
Test in all cases: relative viability (nuclei count vs DMSO), 5 days (fraction); higher = more cells survive
[1] = compound: CN(C)C(=N)NC(=N)N [Metformin] + CC(C)C[C@H](NC(=O)[C@H](Cc1ccccc1)NC(=O)c1cnccn1)B(O)O [Bortezomib] (partner 0.002 µM)
Outline: (§1)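 Relative viability divides the nuclei count in treated wells by that in vehicle wells. Lung cancer cell lines were seeded in 1536-well plates, dosed by pin tool the next day, and fixed and stained after 5 days in one step with final 0.05% Triton X-100, 1% formaldehyde and 1 ug/ml Hoechst. Dosing was a single drug or a fixed anchor-drug dose plus five library-drug doses (not always all listed) in √10 steps, and values are medians of duplicate plates imaged at 4×.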

[2] = compound: CN(C)C(=N)NC(=N)N [Metformin] + O=C(CCCCCCC(=O)Nc1ccccc1)NO [Vorinostat] (partner 1 µM)
Outline: as §1

[3] = compound: N#CC1(c2ccc(NC(=O)c3cccnc3NCc3ccncc3)cc2)CCCC1 [Apatinib] + NC(=O)Nc1cc(-c2cccc(F)c2)sc1C(=O)N[C@H]1CCCNC1 [AZD7762] (partner 0.2 µM)
Outline: as §1

[4] = compound: N#CC1(c2ccc(NC(=O)c3cccnc3NCc3ccncc3)cc2)CCCC1 [Apatinib] + N=C(N)NC(=N)NCCc1ccccc1 [Phenformin] (partner 250 µM)
Outline: as §1

Row | Cell Line | relative viability ([1]; first compound 10 µM) | relative viability ([1]; first compound 31.62 µM) | relative viability ([1]; first compound 100 µM) | relative viability ([1]; first compound 316.23 µM) | relative viability ([1]; first compound 1000 µM) | relative viability ([2]; first compound 10 µM) | relative viability ([2]; first compound 31.62 µM) | relative viability ([2]; first compound 100 µM) | relative viability ([2]; first compound 316.23 µM) | relative viability ([2]; first compound 1000 µM) | relative viability ([3]; first compound 0.08 µM) | relative viability ([3]; first compound 0.253 µM) | relative viability ([3]; first compound 0.8 µM) | relative viability ([3]; first compound 2.53 µM) | relative viability ([3]; first compound 8 µM) | relative viability ([4]; first compound 0.08 µM) | relative viability ([4]; first compound 0.253 µM) | relative viability ([4]; first compound 0.8 µM) | relative viability ([4]; first compound 2.53 µM) | relative viability ([4]; first compound 8 µM)
1 | NCI-H2087 | 0.564 | 0.791 | 0.691 | 0.786 | 0.744 | 0.595 | 0.657 | 0.637 | 0.567 | 0.671 | 1.25 | 1.25 | 1.32 | 1.05 | 1.05 | 0.499 | 0.46 | 0.424 | 0.339 | 0.374
2 | PC-3 [JPC-3] | 0.702 | 0.865 | 0.772 | 0.862 | 0.833 | 0.737 | 0.664 | – | 0.85 | 0.554 | – | 0.745 | 0.672 | 0.63 | 0.688 | 0.471 | 0.468 | 0.474 | 0.448 | 0.46
3 | NCI-H441 | 0.273 | – | 0.344 | – | 0.404 | – | 0.513 | 0.69 | 0.51 | 0.866 | 1 | 1.16 | 1.05 | 1.08 | 1.06 | 0.849 | 0.762 | 0.827 | 0.784 | 0.76
4 | LCLC-97TM1 | 0.635 | 0.87 | 0.789 | 0.713 | 0.351 | – | 0.675 | 0.711 | 0.601 | 0.704 | 0.233 | 0.263 | 0.204 | 0.19 | 0.311 | 0.411 | 0.409 | 0.424 | 0.404 | 0.37
5 | RERF-LC-KJ | 1.14 | 1.15 | 1.1 | 1.01 | 0.988 | 0.564 | 0.745 | 0.634 | 0.534 | 0.612 | 0.844 | 1.02 | 1.04 | 0.779 | 0.759 | 0.452 | 0.403 | 0.401 | 0.427 | 0.454
6 | NCI-H2405 | 0.55 | 1.01 | 0.972 | 0.924 | 0.613 | – | 0.991 | 1.03 | 1.02 | 0.587 | 0.773 | 0.859 | 0.713 | 0.55 | 0.609 | 0.392 | 0.392 | 0.394 | 0.33 | 0.344
7 | NCI-H727 | 1.05 | 0.756 | 1.02 | 0.774 | 0.934 | 1.1 | 1.16 | 1.13 | – | 1.13 | 0.487 | – | 0.548 | 0.456 | 0.49 | 0.566 | 0.542 | 0.528 | 0.539 | 0.514
8 | NCI-H650 | 0.989 | 1.12 | 0.781 | 0.782 | 1.18 | 0.425 | 0.413 | 0.405 | 0.556 | 0.533 | 0.906 | 1.05 | 1.12 | 0.743 | 0.694 | 0.405 | 0.413 | 0.447 | 0.385 | 0.374
9 | NCI-H838 | 1.02 | 1.14 | 0.926 | 0.957 | 1.23 | 0.645 | 0.586 | 0.675 | 0.569 | 0.654 | 0.979 | 0.957 | 0.941 | 0.885 | 0.865 | 0.716 | 0.686 | 0.521 | 0.507 | 0.518
10 | NCI-H1993 | 1.09 | 1.19 | 1.12 | 1.18 | 1.39 | 0.585 | 0.6 | 0.646 | 0.608 | 0.921 | 0.869 | 0.7 | 0.648 | 0.576 | 0.638 | 0.533 | 0.555 | 0.528 | 0.485 | 0.567
11 | NCI-H1437 | 0.629 | 0.641 | 0.459 | 0.527 | 0.574 | 1.1 | 1.34 | 0.993 | 0.961 | 1.01 | 1.07 | 1.12 | 1.02 | 1.04 | 0.812 | 0.354 | 0.283 | 0.278 | 0.252 | 0.251
12 | H3255 | 0.716 | 0.89 | 0.88 | 0.991 | 0.415 | 0.627 | 0.921 | 0.758 | 0.811 | 0.929 | 0.824 | 0.882 | 0.851 | 0.736 | 0.718 | 0.393 | 0.398 | 0.343 | 0.358 | 0.32
13 | NCI-H322M | 1.32 | 1.45 | 1.19 | 1.36 | 1.48 | 0.946 | 0.861 | 0.945 | 0.865 | 0.702 | 0.553 | 0.58 | 0.549 | 0.471 | 0.471 | 0.831 | 0.76 | 0.778 | 0.814 | 0.784
14 | LCLC-103H | 0.971 | 1.22 | 1.06 | 1.12 | 1.06 | 0.569 | 0.79 | 0.795 | 0.788 | 0.873 | 0.801 | 0.741 | 0.858 | 0.7 | 0.75 | 0.363 | 0.31 | 0.316 | 0.297 | 0.308
15 | CAL-12T | 1.16 | 0.935 | 1.02 | 1.06 | 1.15 | 0.729 | 0.742 | 0.585 | 0.691 | 0.743 | 0.618 | 0.53 | 0.603 | 0.51 | 0.468 | 0.636 | 0.638 | 0.565 | 0.542 | 0.467
16 | PC-14 | 0.818 | 0.943 | 0.767 | 0.906 | 0.82 | 0.618 | 0.598 | 0.567 | 0.415 | 0.533 | 0.359 | 0.348 | 0.258 | 0.167 | 0.267 | 0.445 | 0.793 | – | 0.476 | 0.446
17 | NCI-H2347 | 1.09 | 1.1 | 1.23 | 1.09 | 0.641 | 0.602 | 0.619 | 0.71 | 0.575 | 0.599 | 0.716 | 0.791 | 0.823 | 0.654 | 0.556 | 0.476 | 0.307 | 0.443 | 0.206 | 0.465
